From PMC3288053 (PLoS ONE, 2012)

What was measured:
[1] = tested on: IR (Tyr1146), AKT (Ser473) in 3T3-L1 adipocytes; assay: Western blot of IR and AKT phosphorylation; type: cell-based; conditions: insulin 17 nM, 5 minutes
Experimental: (§1) Insulin sensitizing effects of Rut are investigated in CHO-K1 and 3T3-L1 adipocytes. After incubation with compounds in serum-free medium for indicated time, cells are stimulated with insulin (170 nM for CHO-K1 cells and 17 nM for 3T3-L1 adipocytes) for 5 min, and the stimulation is stopped by ice-cold PBS. The effect of Rut on insulin signaling is also investigated in CHO-K1 cells. In the assay, cells are stimulated with Rut (20 µM, 8 h) or insulin (170 nM, 5 min), and then lysed on ice. GLUT4 protein level is studied in the differentiated 3T3-L1 adipocytes (the 10th day after MDI stimulation). After incubation of compounds for 48 h, cells are lysed on ice. The proteins are resolved by SDS-polyacrylamide gel electrophoresis and electro-transferred to polyvinylidene difluoride membranes. The membrane is blocked by 5% skimmed milk and incubated with antibodies. Proteins are visualized by the ECL detecting system.

[2] = tested on: IR (Tyr1146), AKT (Ser473) in CHO-K1 cells; assay: Western blot of IR and AKT phosphorylation; type: cell-based; conditions: insulin 170 nM, 5 minutes, different doses of Rut
Experimental: as §1

[3] = tested on: GLUT4 promoter; assay: GLUT4 promoter luciferase assay with rxrα or pparγ siRNA; type: cell-based; conditions: Rut 20 µM
Experimental: (§2) HEK293 cells are transfected with luciferase reporter plus Renilla luciferase vector and other plasmids if needed for 5 hours, and cells are then incubated with indicated concentrations of compounds for another 24 h. Finally cells are lysed and luciferase activities are measured using Dual Luciferase Assay System kit. The results are presented as the fold activation relative to untreated cells after normalization with Renilla luciferase values. Each experiment is repeated at least twice, with each sample analyzed in triplicates.

[4] = tested on: epididymis fat tissues; assay: Gene and protein expression in epididymis fat tissues of treated DIO mice; type: in vivo
Experimental: Four mice in each group are employed for the determination of gene expression. The total RNA is extracted from epididymis fat tissues (75 mg/mice) with TRIzol reagent, and the cDNA is synthesized using PrimeScript™ RT reagent Kit. Real-time PCR is performed using SYBR Green Real time PCR master mix on DNA Engine Opticon 2 System. The PCR cycle is 94°C for 20 seconds, 60°C for 30 seconds and 72°C for 30 seconds. The primer pairs for the related genes are described in Supplementary Table S2. The epididymis fat is lysed and the supernatant is separated by SDS-PAGE and transferred to polyvinylidene difluoride membranes (Millipore). Membranes are incubated in blocking buffer (BB) containing 5% skimmed milk with 0.5% Tween 20 in Tris-buffered saline and immunoblotted with the related antibodies overnight at 4°C in BB. After incubation, membranes are washed and incubated with horseradish peroxidase-labeled secondary antibodies (Amersham), and then the proteins are detected by SuperSignal West Pico chemiluminescent substrate (Pierce).

[5] = target: T1, PPARγ:RXRα (Homo sapiens, UniProt P19793+P37231); assay: Transient transfection luciferase assay in HEK293 cells (PPRE); type: cell-based; conditions: HEK293, 24 h
T1 construct: expressed in transfected cells; host or cells: HEK293
T1 sequence (P37231 whole entry): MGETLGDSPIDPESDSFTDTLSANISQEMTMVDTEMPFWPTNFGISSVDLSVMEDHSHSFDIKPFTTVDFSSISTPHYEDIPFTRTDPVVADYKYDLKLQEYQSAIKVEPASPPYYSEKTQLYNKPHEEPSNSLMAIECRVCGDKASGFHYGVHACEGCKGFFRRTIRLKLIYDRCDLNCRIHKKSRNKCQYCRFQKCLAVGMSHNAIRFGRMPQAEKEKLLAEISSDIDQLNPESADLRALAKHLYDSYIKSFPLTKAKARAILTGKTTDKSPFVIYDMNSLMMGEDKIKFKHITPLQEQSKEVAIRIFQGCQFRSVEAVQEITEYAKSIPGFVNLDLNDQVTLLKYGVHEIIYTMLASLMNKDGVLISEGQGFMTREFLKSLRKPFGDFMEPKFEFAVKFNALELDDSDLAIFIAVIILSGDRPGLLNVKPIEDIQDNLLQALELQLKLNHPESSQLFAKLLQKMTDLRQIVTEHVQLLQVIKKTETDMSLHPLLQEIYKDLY
T1 sequence (P19793 whole entry): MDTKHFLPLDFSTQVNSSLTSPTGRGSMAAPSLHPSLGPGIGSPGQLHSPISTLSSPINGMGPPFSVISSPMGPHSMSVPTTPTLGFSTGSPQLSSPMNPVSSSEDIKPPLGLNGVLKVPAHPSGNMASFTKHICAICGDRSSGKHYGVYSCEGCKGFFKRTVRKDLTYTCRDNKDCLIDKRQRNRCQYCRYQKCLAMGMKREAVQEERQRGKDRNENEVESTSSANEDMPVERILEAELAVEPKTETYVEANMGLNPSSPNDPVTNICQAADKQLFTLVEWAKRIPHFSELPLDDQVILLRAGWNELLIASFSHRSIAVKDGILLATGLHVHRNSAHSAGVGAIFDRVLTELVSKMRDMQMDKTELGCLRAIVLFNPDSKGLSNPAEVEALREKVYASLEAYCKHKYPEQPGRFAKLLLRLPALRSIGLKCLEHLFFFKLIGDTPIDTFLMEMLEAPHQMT
Experimental: HEK293 cells are transiently transfected by Lipo2000 respectively with RXRα, PPARγ, FXR, and LXRα plasmids plus pGL3-RXRE luciferase vector and renilla luciferase vector for 5 hours. Cells are then incubated with indicated concentrations of compounds for another 24 h and finally lysed. Luciferase activities are measured using Dual Luciferase Assay System kit. Rut dose-dependently activates (a) RXRα:RXRα and (b) PPARγ:RXRα activities. Rut has no effects on (c) FXR: RXRα and (d) LXRα:RXRα activities. Data are presented as means ± s.e.m (*P<0.05, **P<0.01) from three independent experiments.
as §2

[6] = target: interaction of RXRα with SRC1 (Homo sapiens, UniProt P19793); assay: Yeast two-hybrid assay; conditions: AH109 strain, 48 hours
Sequence of interaction of RXRα with SRC1 (P19793 223-462 limits assumed): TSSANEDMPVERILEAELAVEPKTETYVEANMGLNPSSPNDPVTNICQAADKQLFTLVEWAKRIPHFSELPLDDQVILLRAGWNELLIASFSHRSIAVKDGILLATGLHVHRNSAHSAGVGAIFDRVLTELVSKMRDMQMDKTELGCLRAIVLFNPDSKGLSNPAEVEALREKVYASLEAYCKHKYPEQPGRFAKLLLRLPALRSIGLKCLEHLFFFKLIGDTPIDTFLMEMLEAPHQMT
Sequence of interaction of RXRα with SRC1 (Q15788 613-773 partner limits assumed): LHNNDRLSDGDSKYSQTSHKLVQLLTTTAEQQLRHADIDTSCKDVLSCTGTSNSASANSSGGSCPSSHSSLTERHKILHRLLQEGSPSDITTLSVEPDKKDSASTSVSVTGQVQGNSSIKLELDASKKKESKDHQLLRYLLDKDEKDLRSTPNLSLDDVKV

[7] = tested on: 3T3-L1 adipocytes; assay: 2-Deoxyglucose uptake in 3T3-L1 adipocytes; type: cell-based
Experimental: 3T3-L1 adipocytes are fully differentiated (the 10th day after MDI stimulation) and seeded into 24-well plate. After incubation with compounds in serum-free medium containing 0.5% BSA for 8 hours, medium is changed to Krebs buffer containing […] insulin and incubated for 30 minutes. In the last 5 minutes, cells are incubated with 2-[^3H]-deoxy-D-glucose. The glucose uptake is stopped by ice-cold PBS, and the cells are then lysed with 0.1% Triton. Finally the radioactivity is calculated by a scintillation counter. Cytochalasin B is used to measure nonspecific uptake, and the value is subtracted from all the data. Radioactivity is normalized by total protein concentration that is measured by BCA kit.

[8] = tested on: GLUT4 promoter; assay: GLUT4 promoter-luciferase reporter assay in 3T3-L1 adipocytes; type: cell-based; conditions: pre-treated 24 hours
Experimental: (a) Chemical structure of (+)-Rutamarin. […] Green fluorescence represents the total GLUT4, and red fluorescence depicts the translocated GLUT4 to cell membrane. (d) Insulin (170 nM)-induced GLUT4 translocation of CHO-K1/GLUT4 cells treated with compound-2 (C2, 10 µM), pervanadate (Pervan, 100 µM) and Rut (5, 10, 20 µM) for 5 minutes. (e) Immunofluorescence with antibody against GLUT4 (green), DAPI (blue) in 3T3-L1 adipocytes. GLUT4 translocation is detected either in the insulin (17 nM) stimulated 3T3-L1 adipocytes for 5 minutes, or pre-treated with Rut (20 µM) for 8 hours and then stimulated with insulin (17 nM) for 5 minutes. (f) Rut potently stimulates GLUT4 promoter activity in 3T3-L1 adipocytes (20 µM, Rut was pre-treated in the cells for 24 hours. Reporter gene is GLUT4 promoter-luciferase plasmid together with Renilla luciferase expression vector as a control). (g) H^3-glucose uptake assay in fully differentiated 3T3-L1 adipocytes treated with C2 (10 µM) and different doses of Rut (5–25 µM). Treatment of Rut for 30 minutes improves the insulin (17 nM)-stimulated glucose uptake. (h) GLUT4 expression is determined by western blotting with an antibody against GLUT4 in 3T3-L1 adipocytes treated with Rut (20 µM) for 48 hours. Data are presented as means ± s.e.m (*P<0.05, **P<0.01) from three independent experiments.

C=CC(C)(C)c1cc2cc3c(cc2oc1=O)O[C@H](C(C)(C)OC(C)=O)C3 [(+)-Rutamarin]
insulin-stimulated phosphorylation levels of IR and AKT [1]: largely increased | insulin-induced phosphorylation of IR and AKT [2]: enhances | Relative glut4-pro activity ([3]; Fig. 6b, pSuperbasic control vector): 1.31 X | Relative glut4-pro activity ([3]; Fig. 6b, pSuperbasic-RXRα (rxrα siRNA)): 0.98 X | Relative glut4-pro activity ([3]; Fig. 6c, pSuperbasic control vector): 1.55 X | Relative glut4-pro activity ([3]; Fig. 6c, pSuperbasic-PPARγ (pparγ siRNA)): 1.39 X | insulin receptor (IR) phosphorylation in epididymis fat tissues ([4]; Rut 2 mg/kg IP, 2 weeks): efficiently improve | mRNA levels of PPARγ:RXRα-regulated genes (pepck, GLUT4 and adiponectin) ([4]; Rut 10 mg/kg, epididymis fat tissues): efficiently increase | GLUT4 expression in epididymis fat tissues ([4]; Rut 2 and 10 mg/kg): increases GLUT4 expression | activity of PPAR-response element (PPRE) [5]: dose-dependently enhance | interaction of SRC1 with RXRα (α-galactosidase activity) [6]: dose-dependently enhances | glucose uptake without insulin stimulation ([7]; Rut 20 µM, 8 hours): improves glucose uptake | insulin-induced glucose uptake ([7]; insulin 17 nM, Rut 5–25 µM, C2 10 µM): dose-dependently enhances | GLUT4 promoter activity [8]: dose-dependently induce
